According to patent US8791123B2, “Substituted pyrazolo[1,5-a]pyrimidine compounds as Trk kinase inhibitors” (Array Biopharma, Inc., priority 2009, dated 2014):
Read-outs that look alike come from different tables or passages of the source.

Tests used:
[1] = biological target: TrkA (histidine-tagged recombinant human TrkA, cytoplasmic domain) (Homo sapiens (Human), UniProt P04629); assay: TrkA ELISA Assay; format: biochemical; settings: Table 1; ELISA, 500 μM ATP; read-out: TrkA Enzyme IC50
Experimental: An enzyme-linked immunosorbant assay (ELISA) was used to assess TrkA kinase activity in the presence of inhibitors. Immulon 4HBX 384-well microtiter plates (Thermo part #8755) were coated with a 0.025 mg/mL solution of poly (Glu, Ala, Tyr; 6:3:1; Sigma P3899). […] The reaction mixture was removed from the plate by washing with PBS containing 0.1% (v/v) Tween 20. The phosphorylated reaction product was detected using 0.2 μg/mL of a phosphotyrosine specific monoclonal antibody (clone PY20) conjugated to horseradish peroxidase in conjunction with the TMB Peroxidase Substrate System (KPL). After the addition of 1M phosphoric acid, the chromogenic substrate color intensity was quantitated via absorbance at 450 nm.

[2] = biological target: Human Jak2 kinase domain (Homo sapiens (Human), UniProt O60674); assay: Jak2 Inhibition Assay (Omnia kinase assay); format: biochemical; settings: read-out: Jak2 Enzyme IC50
Experimental: The assays described in Examples C, D, E and F for the determination of JAK1, JAK2, JAK3 and Tyk2 kinase activity, respectively, utilized the Omnia® Kinase fluorescence peptide substrate-based technology (Invitrogen). […] The reactions were therefore read at excitation 360 nm and emission was measured at 485 nm every 50 seconds for 45 minutes using a PerkinElmer EnVision Multilabel Plate Reader.
The final buffer conditions for each of the JAK1, JAK2, JAK3 and Tyk2 assays were as follows: 25 mM HEPES, pH 7.4, 10 mM MgCl2, 0.01% Triton X-100 and 1 mM DTT.
Two-μL aliquots of these were transferred to a fresh plate for a ten-fold intermediate dilution with assay buffer. Five-μL aliquots of the diluted compounds were then transferred to 20-μL of assay mixtures described in Examples C, D, E and F for a final concentration of DMSO of 2%. […] For each plate, percent of control (POC) values were calculated for each well according to the following equation:
[formula] • where • Xmax=Average Uninhibited Controls • Xmin=Average Background IC50's were estimated from the POC's using a standard 4-parameter logistic model:
[formula] • where • A=Minimum Y (Bottom Asymptote) • B=Maximum Y (Top Asymptote) • C=EC50 • D=Slope Factor • X=Compound Concentration (nM) • Y=POC
The IC50 is defined as the concentration of inhibitor at which the POC equals 50 for the fitted curve.
Compounds of Formula I were screened for their ability to inhibit Jak2 using the general enzyme inhibition assay method, in which the assay mixture contained 500 μM ATP, 10 μM Omnia® Y7 peptide (Catalog # IVGN KNZ3071C, Invitrogen Corporation, Carlsbad, Calif.) and 4 nM Jak2 in a total volume of 20 μL. Human Jak2 kinase domain comprising amino acids 808-1132 was purchased from Invitrogen Corporation, Carlsbad, Calif. (catalog # IVGN PV4210).

[3] = Table 1, 500 μM ATP, >1000 nM when >50% inhibition not observed at 1000 nM

Human Jak2 kinase domain, sequence (O60674 808-1132): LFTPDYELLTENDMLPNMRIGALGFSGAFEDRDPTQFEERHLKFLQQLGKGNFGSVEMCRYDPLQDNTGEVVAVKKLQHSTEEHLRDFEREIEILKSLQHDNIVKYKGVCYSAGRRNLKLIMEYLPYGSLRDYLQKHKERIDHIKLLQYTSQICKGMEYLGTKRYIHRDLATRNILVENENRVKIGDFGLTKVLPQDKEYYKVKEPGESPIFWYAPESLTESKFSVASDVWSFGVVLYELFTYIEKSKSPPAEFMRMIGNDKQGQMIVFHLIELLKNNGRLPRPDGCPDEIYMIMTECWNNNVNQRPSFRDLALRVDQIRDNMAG
TrkA (histidine-tagged recombinant human TrkA, cytoplasmic domain), sequence (P04629 440-796): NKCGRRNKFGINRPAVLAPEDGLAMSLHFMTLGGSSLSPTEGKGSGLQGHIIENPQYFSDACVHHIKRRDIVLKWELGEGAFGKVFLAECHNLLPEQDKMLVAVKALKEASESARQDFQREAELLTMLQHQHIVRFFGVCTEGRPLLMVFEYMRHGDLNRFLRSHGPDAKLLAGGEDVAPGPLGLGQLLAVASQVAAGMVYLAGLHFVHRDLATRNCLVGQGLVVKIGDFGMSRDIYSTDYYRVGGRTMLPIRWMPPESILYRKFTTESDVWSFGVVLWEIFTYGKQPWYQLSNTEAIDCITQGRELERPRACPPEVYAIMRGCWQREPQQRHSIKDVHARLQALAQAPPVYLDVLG

Compound	IC50 [1] [nM]	IC50 [2, 3] [nM]	IC50 [2] [nM]
O=C(NC[C@H](O)CO)c1cnn2ccc(N3CCC[C@@H]3c3cc(F)ccc3C(F)(F)F)nc12 [Example 62, N—((S)-2,3-dihydroxypropyl)-5-((R)-2-(5-fluoro-2-(trifluoromethyl)phenyl)pyrrolidin-1-yl)pyrazolo[1,5-a]pyrimidine-3-carboxamide]	2.53	> 1000	
O=C(NC[C@@H](O)CO)c1cnn2ccc(N3CCC[C@@H]3c3cc(F)ccc3C(F)(F)F)nc12 [Example 63, N—((R)-2,3-dihydroxypropyl)-5-((R)-2-(5-fluoro-2-(trifluoromethyl)phenyl)pyrrolidin-1-yl)pyrazolo[1,5-a]pyrimidine-3-carboxamide]	4.55	> 1000	
NC(=O)c1cnn2ccc(N3CCC[C@@H]3c3cc(F)ccc3C(F)(F)F)nc12 [Example 64, (R)-5-(2-(5-fluoro-2-(trifluoromethyl)phenyl)pyrrolidin-1-yl)pyrazolo[1,5-a]pyrimidine-3-carboxamide]	1.6	575	
CONC(=O)c1cnn2ccc(N3CCC[C@@H]3c3cc(F)ccc3F)nc12 [Example 65, (R)-5-(2-(2,5-difluorophenyl)pyrrolidin-1-yl)-N-methoxypyrazolo[1,5-a]pyrimidine-3-carboxamide]	0.6	> 1000	
O=C(NOCC1CC1)c1cnn2ccc(N3CCC[C@@H]3c3cc(F)ccc3F)nc12 [Example 66, (R)—N-(cyclopropylmethoxy)-5-(2-(2,5-difluorophenyl)pyrrolidin-1-yl)pyrazolo[1,5-a]pyrimidine-3-carboxamide]	0.57	> 1000	
CC1(C)CC[C@H](c2cc(F)ccc2F)N1c1ccn2ncc(C(N)=O)c2n1 [Example 67, (R)-5-(5-(2,5-difluorophenyl)-2,2-dimethylpyrrolidin-1-yl)pyrazolo[1,5-a]pyrimidine-3-carboxamide]	5.1	> 1000	
CC1(C)CC[C@H](c2cc(F)ccc2F)N1c1ccn2ncc(C(=O)NC3CC3)c2n1 [Example 68, (R)—N-cyclopropyl-5-(5-(2,5-difluorophenyl)-2,2-dimethylpyrrolidin-1-yl)pyrazolo[1,5-a]pyrimidine-3-carboxamide]	6.6	> 1000	
CC(C)(CF)NC(=O)c1cnn2ccc(N3CCC[C@@H]3c3cncc(F)c3)nc12 [Example 71, (R)—N-(1-fluoro-2-methylpropan-2-yl)-5-(2-(5-fluoropyridin-3-yl)pyrrolidin-1-yl)pyrazolo[1,5-a]pyrimidine-3-carboxamide]	8.65	> 1000	
CONC(=O)c1cnn2ccc(N3CCC[C@@H]3c3cncc(F)c3)nc12 [Example 73, (R)-5-(2-(5-fluoropyridin-3-yl)pyrrolidin-1-yl)-N-methoxypyrazolo[1,5-a]pyrimidine-3-carboxamide]	48.5	> 1000	
CONC(=O)c1cnn2ccc(N3CCC[C@@H]3c3cccc(F)c3)nc12 [Example 75]	6.95	> 1000	
COc1ncc(F)cc1[C@H]1CCCN1c1ccn2ncc(C(=O)NC3CC3)c2n1 [Example 79, (R)—N-cyclopropyl-5-(2-(5-fluoro-2-methoxypyridin-3-yl)pyrrolidin-1-yl)pyrazolo[1,5-a]pyrimidine-3-carboxamide]	1.3		698
COc1ncc(F)cc1[C@H]1CCCN1c1ccn2ncc(C(=O)NC(C)(C)C)c2n1 [Example 80, (R)—N-tert-butyl-5-(2-(5-fluoro-2-methoxypyridin-3-yl)pyrrolidin-1-yl)pyrazolo[1,5-a]pyrimidine-3-carboxamide]	1.8		869
COc1ncc(F)cc1[C@H]1CCCN1c1ccn2ncc(C(=O)NC(C)(C)CF)c2n1 [Example 81, (R)-5-(2-(5-fluoro-2-methoxypyridin-3-yl)pyrrolidin-1-yl)-N-(1-fluoro-2-methylpropan-2-yl)pyrazolo[1,5-a]pyrimidine-3-carboxamide]	1.15		666
COc1ncc(F)cc1[C@H]1CCCN1c1ccn2ncc(C(N)=O)c2n1 [Example 82, (R)-5-(2-(5-fluoro-2-methoxypyridin-3-yl)pyrrolidin-1-yl)pyrazolo[1,5-a]pyrimidine-3-carboxamide]	2.55		> 1000
CONC(=O)c1cnn2ccc(N3CCC[C@@H]3c3cc(F)cnc3OC)nc12 [Example 83, (R)-5-(2-(5-fluoro-2-methoxypyridin-3-yl)pyrrolidin-1-yl)-N-methoxypyrazolo[1,5-a]pyrimidine-3-carboxamide]	1.77		> 1000
O=C(NOC[C@@H](O)CO)c1cnn2ccc(N3CCC[C@@H]3c3cc(F)ccc3F)nc12 [Example 88, 5-((R)-2-(2,5-difluorophenyl)pyrrolidin-1-yl)-N—((S)-2,3-dihydroxypropoxy)pyrazolo[1,5-a]pyrimidine-3-carboxamide]	6.13	> 1000	
CC1(O)CN(C(=O)c2cnn3ccc(N4CCC[C@@H]4c4cncc(F)c4)nc23)C1 [Example 92, (R)-(5-(2-(5-fluoropyridin-3-yl)pyrrolidin-1-yl)pyrazolo[1,5-a]pyrimidin-3-yl)(3-hydroxy-3-methylazetidin-1-yl)methanone]	1010	> 1000	

The next lines start with the values.

IC50 [1] [nM]	IC50 [2, 3] [nM]	IC50 [2] [nM]	Compound
44.4	> 1000		O=C(NC1CCOCC1)c1cnn2ccc(N3CCC[C@@H]3c3cncc(F)c3)nc12 [Example 72, (R)-5-(2-(5-fluoropyridin-3-yl)pyrrolidin-1-yl)-N-(tetrahydro-2H-pyran-4-yl)pyrazolo[1,5-a]pyrimidine-3-carboxamide]
90	> 1000		NC(=O)c1cnn2ccc(N3CCC[C@@H]3c3cc(F)cc(OCCN4CCOCC4)c3)nc12 [Example 76, (R)-5-(2-(3-fluoro-5-(2-morpholinoethoxy)phenyl)pyrrolidin-1-yl)pyrazolo[1,5-a]pyrimidine-3-carboxamide]
5.37	> 1000		COCCOc1cc(F)cc([C@H]2CCCN2c2ccn3ncc(C(=O)NC4CC4)c3n2)c1 [Example 77, (R)—N-cyclopropyl-5-(2-(3-fluoro-5-(2-methoxyethoxy)phenyl)pyrrolidin-1-yl)pyrazolo[1,5-a]pyrimidine-3-carboxamide]
34.9	> 1000		COCCOc1cc(F)cc([C@H]2CCCN2c2ccn3ncc(C(N)=O)c3n2)c1 [Example 78, (R)-5-(2-(3-fluoro-5-(2-methoxyethoxy)phenyl)pyrrolidin-1-yl)pyrazolo[1,5-a]pyrimidine-3-carboxamide]
9.38	> 1000		O=C(NC1CC1)c1cnn2ccc(N3CCC[C@@H]3c3cc(F)cc(OCCN4CCOCC4)c3)nc12 [Example 85, (R)—N-cyclopropyl-5-(2-(3-fluoro-5-(2-morpholinoethoxy)phenyl)pyrrolidin-1-yl)pyrazolo[1,5-a]pyrimidine-3-carboxamide]
26.7	> 1000		NC(=O)c1cnn2ccc(N3CCC[C@@H]3c3cc(F)ccc3OCCN3CCOCC3)nc12 [Example 86, (R)-5-(2-(5-fluoro-2-(2-morpholinoethoxy)phenyl)pyrrolidin-1-yl)pyrazolo[1,5-a]pyrimidine-3-carboxamide]
16.1	> 1000		O=C(NC1CC1)c1cnn2ccc(N3CCC[C@@H]3c3cc(F)ccc3OCCN3CCOCC3)nc12 [Example 87, (R)—N-cyclopropyl-5-(2-(5-fluoro-2-(2-morpholinoethoxy)phenyl)pyrrolidin-1-yl)pyrazolo[1,5-a]pyrimidine-3-carboxamide]
3.6	> 1000		COCCOc1ccc(F)cc1[C@H]1CCCN1c1ccn2ncc(C(N)=O)c2n1 [Example 89, (R)-5-(2-(5-fluoro-2-(2-methoxyethoxy)phenyl)pyrrolidin-1-yl)pyrazolo[1,5-a]pyrimidine-3-carboxamide]
568	> 1000		O=C(c1cnn2ccc(N3CCC[C@@H]3c3cncc(F)c3)nc12)N1CCCC1 [Example 94, (R)-(5-(2-(5-fluoropyridin-3-yl)pyrrolidin-1-yl)pyrazolo[1,5-a]pyrimidin-3-yl)(pyrrolidin-1-yl)methanone]
